Experimental findings from article doi:10.1101/2022.03.26.485909v4 (biorxiv, 2022) are described below.

One assay deals with T1, RNF130 (Homo sapiens, UniProt Q86XS8).
T1 sequence (Q86XS8 28-304): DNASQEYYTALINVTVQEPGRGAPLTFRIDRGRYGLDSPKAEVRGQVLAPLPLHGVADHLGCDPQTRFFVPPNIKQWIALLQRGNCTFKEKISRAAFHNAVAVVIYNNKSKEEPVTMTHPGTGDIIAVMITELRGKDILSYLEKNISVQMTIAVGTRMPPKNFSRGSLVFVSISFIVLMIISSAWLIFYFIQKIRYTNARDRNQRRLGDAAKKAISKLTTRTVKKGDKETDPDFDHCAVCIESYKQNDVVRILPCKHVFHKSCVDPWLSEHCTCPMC
The experiment in a line: SPR, Biacore T200, amine-coupled RNF130 on CM5 chip. It counts as binding.

The target in a further assay is SPOP^MATH (Homo sapiens, UniProt O43791). In words: fluorescence polarization, displacement of FITC-puc_SBC1 peptide. It counts as binding.
Sequence of SPOP^MATH (O43791 28-166): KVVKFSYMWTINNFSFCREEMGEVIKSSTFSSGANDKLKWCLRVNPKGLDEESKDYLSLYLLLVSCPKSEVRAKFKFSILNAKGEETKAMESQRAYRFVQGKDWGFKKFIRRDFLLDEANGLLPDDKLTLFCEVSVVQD

Turning to `CS(=O)(=O)c1nnc(CN2C3C=C(c4ccccc4)CC2CC3)s1` (stereo not drawn) [iRNF130-63], at RNF130, the Kd was determined as 9.36 µM. This counts as single-digit micromolar.
On to `Cc1nnc(SCC2=C(C(=O)O)N3C(=O)C(NC(=O)c4ccc(COc5ccccc5Cl)o4)C3SC2)s1` (stereo not drawn) [221C7], for which the half-inhibitory concentration (IC50) on SPOP^MATH came out at 4.3 µM.
Still for that read-out and setting: for `CC(=O)OCC1=C(C(=O)O)N2C(=O)C(NC(=O)c3ccc(COc4ccc(Br)cc4Cl)o3)C2SC1` (stereo not drawn) [230D7, 3-(acetoxymethyl)-7-(5-((4-bromo-2-chlorophenoxy)methyl)furan-2-carboxamido)-8-oxo-5-thia-1-azabicyclo[4.2.0]oct-2-ene-2-carboxylic acid] the value was 8.7 µM.
